Source: patent US9334263B2, “Compositions useful for treating disorders related to kit” (BLUEPRINT MEDICINES CORPORATION, priority 2013, dated 2016)

Columns and labels:
[1] = biological target: T1, Kit D816V (HMC1.2 cells, Kit V560G and D816V) (Homo sapiens, UniProt P10721, D816V/V560G); test: HMC1.2 autophosphorylation assay (AlphaLISA, phospho-Y719 c-Kit); type: cell-based; details: Kit autophosphorylation at tyrosine 719, 90 minutes, read-out: Cellular Activity
T1 construct: endogenous in cells; host or cells: HMC1.2 cells
Outline: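 AlphaScreen signal comes from lysed HMC1.2 cells incubated with phospho-Y719 and total c-Kit antibodies (15 nM final), acceptor beads and then streptavidin donor beads, 2 h each at room temperature. Beforehand, cells deprived of serum overnight received compound for 90 min as a 10-point series, 25 uM–95.4 pM, 0.25% DMSO.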

PDGFRA D842V = biological target: T2, PDGFRA D842V (Homo sapiens, UniProt P16234, D842V); test: PDGFRA D842V assay at Km (Caliper electrophoretic mobility shift); type: biochemical; details: 15 uM ATP, 25 C, 90 minutes; read-out: PDFGRA D842V
T2 construct: purchased ProQinase 0761-0000-1
Method: (§1) In order to assess the activity of chemical compounds against the relevant kinase of interest, the Caliper LifeSciences electrophoretic mobility shift technology platform is used. Fluorescently labeled substrate peptide is incubated in the presence of kinase and ATP so that a […] proportion of the peptide is phosphorylated. At the end of the reaction, the mix of phosphorylated (product) and non-phosphorylated (substrate) peptides are passed through the microfluidic system of the Caliper EZ Reader 2, under an applied potential difference. The presence of the phosphate group on the product peptide provides a difference in mass and charge between those of the substrate peptide, resulting in a separation of the substrate and product pools in the sample. As the pools pass a LEDS within the instrument, these pools are detected and resolved as separate peaks. The ratio between these peaks therefore reflects the activity of the chemical matter at that concentration in that well, under those conditions.
(§2) The reaction was stopped by the addition of 70 ul of Stop buffer (100 mM HEPES pH 7.5, 0.015% Brij 35, 35 mM EDTA and 0.2% of Coating Reagent 3 (Caliper Lifesciences)). The plate was then read on a Caliper EZReader 2 (protocol settings: −1.9 psi, upstream voltage −500, downstream voltage −3000, post sample sip 38 s).

D816V Kit = biological target: T3, D816V Kit (Homo sapiens, UniProt P10721, D816V); test: Kit D816V assay at Km (Caliper electrophoretic mobility shift); type: biochemical; details: 15 uM ATP, 25 C, 90 minutes
T3 construct: purchased Carna Bioscience 08-156
Outline: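 Read-out is the ratio of phosphorylated to unphosphorylated fluorescent peptide, resolved by mobility shift on a Caliper EZ Reader 2.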

wild type Kit = biological target: T4, wild type Kit (Homo sapiens, UniProt P10721); test: Kit wild type assay at Km (Caliper electrophoretic mobility shift); type: biochemical; details: 400 uM ATP, 25 C, 90 minutes; read-out: WT KIT
T4 construct: purchased Carna Bioscience 08-156
Method: as §1
as §2, with “−700,” for “−500,”, “35” for “38”

T2 sequence (P16234 24-1089 D842V): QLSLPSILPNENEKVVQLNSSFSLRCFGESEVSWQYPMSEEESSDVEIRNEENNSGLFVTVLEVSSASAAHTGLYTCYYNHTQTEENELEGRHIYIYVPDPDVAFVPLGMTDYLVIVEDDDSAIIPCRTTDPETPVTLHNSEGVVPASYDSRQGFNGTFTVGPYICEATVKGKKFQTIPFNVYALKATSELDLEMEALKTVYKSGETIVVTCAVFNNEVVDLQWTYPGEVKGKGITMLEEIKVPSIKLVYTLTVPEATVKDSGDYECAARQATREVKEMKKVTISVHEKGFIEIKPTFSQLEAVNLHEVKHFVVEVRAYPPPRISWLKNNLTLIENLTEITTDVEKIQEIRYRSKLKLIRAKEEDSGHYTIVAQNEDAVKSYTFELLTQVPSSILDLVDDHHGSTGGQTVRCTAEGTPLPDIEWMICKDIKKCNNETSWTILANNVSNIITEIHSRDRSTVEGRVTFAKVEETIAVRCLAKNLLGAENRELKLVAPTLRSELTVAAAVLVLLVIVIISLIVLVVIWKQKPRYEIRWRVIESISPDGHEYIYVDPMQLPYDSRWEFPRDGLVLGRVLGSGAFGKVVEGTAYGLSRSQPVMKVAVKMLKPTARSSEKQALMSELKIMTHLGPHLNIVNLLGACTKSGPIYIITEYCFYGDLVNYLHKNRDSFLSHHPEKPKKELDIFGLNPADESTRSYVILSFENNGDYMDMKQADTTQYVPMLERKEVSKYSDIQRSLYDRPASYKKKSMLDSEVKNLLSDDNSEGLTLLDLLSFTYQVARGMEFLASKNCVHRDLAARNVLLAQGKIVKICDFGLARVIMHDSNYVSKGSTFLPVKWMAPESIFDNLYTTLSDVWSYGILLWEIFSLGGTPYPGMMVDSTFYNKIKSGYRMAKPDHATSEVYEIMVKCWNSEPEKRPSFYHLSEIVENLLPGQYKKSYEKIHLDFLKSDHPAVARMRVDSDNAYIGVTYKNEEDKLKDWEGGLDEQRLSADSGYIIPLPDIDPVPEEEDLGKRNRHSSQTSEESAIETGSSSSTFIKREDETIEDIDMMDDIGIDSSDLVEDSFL
T1 sequence (P10721 26-976 V560G/D816V): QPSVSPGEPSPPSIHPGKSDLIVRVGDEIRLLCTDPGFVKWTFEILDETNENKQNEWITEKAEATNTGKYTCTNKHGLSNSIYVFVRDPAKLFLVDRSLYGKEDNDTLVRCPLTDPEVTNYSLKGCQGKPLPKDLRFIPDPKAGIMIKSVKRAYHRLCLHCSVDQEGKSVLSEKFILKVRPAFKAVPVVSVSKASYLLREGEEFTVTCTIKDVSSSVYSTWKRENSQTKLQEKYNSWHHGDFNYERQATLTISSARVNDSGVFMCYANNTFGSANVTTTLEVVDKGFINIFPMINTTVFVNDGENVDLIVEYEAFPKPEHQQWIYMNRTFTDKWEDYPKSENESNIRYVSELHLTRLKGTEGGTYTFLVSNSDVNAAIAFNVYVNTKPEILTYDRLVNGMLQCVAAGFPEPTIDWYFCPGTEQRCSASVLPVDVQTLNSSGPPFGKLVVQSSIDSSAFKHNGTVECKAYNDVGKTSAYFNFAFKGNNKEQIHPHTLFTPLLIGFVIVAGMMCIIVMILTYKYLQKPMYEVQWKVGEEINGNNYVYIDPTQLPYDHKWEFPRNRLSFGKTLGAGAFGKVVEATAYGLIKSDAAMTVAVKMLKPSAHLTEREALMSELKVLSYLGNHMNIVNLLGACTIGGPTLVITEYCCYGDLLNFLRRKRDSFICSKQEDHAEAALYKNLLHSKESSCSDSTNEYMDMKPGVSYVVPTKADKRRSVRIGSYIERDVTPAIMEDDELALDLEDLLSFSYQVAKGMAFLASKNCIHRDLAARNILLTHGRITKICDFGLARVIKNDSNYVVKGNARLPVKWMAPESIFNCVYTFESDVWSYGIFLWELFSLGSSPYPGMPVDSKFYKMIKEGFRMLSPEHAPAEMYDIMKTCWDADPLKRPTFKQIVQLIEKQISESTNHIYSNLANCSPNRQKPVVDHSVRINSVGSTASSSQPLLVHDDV
T3 sequence (P10721 26-976 D816V): as the sequence (P10721 26-976 V560G/D816V) above, with G535V counted along it
T4 sequence (P10721 26-976): as the sequence (P10721 26-976 V560G/D816V) above, with G535V, V791D counted along it

Row | IC50 [1] [nM] | IC50 (PDGFRA D842V) [nM] | IC50 (D816V Kit) [nM] | IC50 (wild type Kit) [nM] | Compound
1 | 10 to 100 | < 1 | < 1 | < 10 | c1ccc(Cc2cnc(N3CCN(c4ncnc(Nc5cnn(CC6CCNC6)c5)n4)CC3)nc2)cc1 (stereo not shown) [Compound 83]
2 | 10 to 100 | < 1 | < 1 | 11 to 100 | CN(C)CCCn1cc(Nc2ncnc(N3CCN(c4ncc(Cc5ccccc5)cn4)CC3)n2)cn1 [Compound 88]
3 | 10 to 100 | < 1 | < 1 | < 10 | c1ccc(Cc2cnc(N3CCN(c4ncnc(Nc5cccc(C6CCCNC6)c5)n4)CC3)nc2)cc1 (stereo not shown) [Compound 98]
4 | < 10 | < 1 | < 1 |  | C[C@H](O)Cn1cc(Nc2ncnc(N3CCN(c4ncc(Sc5ccc(F)cc5)cn4)CC3)n2)cn1 [Compound 101]
5 | 10 to 100 | < 1 | < 1 | < 10 | c1ccc(Cc2cnc(N3CCN(c4ncnc(Nc5ccc(N6CCNCC6)cc5)n4)CC3)nc2)cc1 [Compound 102]
6 | 10 to 100 | < 1 | < 1 | < 10 | c1ccc(Cc2cnc(N3CCN(c4ncnc(Nc5cnn(CC6CCNCC6)c5)n4)CC3)nc2)cc1 [Compound 116]
7 | 10 to 100 | < 1 | < 1 | < 10 | c1ccc(Cc2cnc(N3CCN(c4ncnc(Nc5cnn(CC6CCCNC6)c5)n4)CC3)nc2)cc1 (stereo not shown) [Compound 117]
8 | < 10 | < 1 | < 1 | < 10 | c1ccc(Cc2cnc(N3CCN(c4ncnc(Nc5cnn(C[C@H]6CNCCO6)c5)n4)CC3)nc2)cc1 [Compound 123]
9 | 10 to 100 | < 1 | < 1 | < 10 | c1ccc(Cc2cnc(N3CCN(c4ncnc(Nc5cnn(C[C@@H]6CNCCO6)c5)n4)CC3)nc2)cc1 [Compound 124]
10 | 10 to 100 | < 1 | < 1 | < 10 | CC(C)N1CCc2ccc(Nc3ncnc(N4CCN(c5ncc(Cc6ccccc6)cn5)CC4)n3)cc2C1 [Compound 148]
11 | 10 to 100 | 1.01 to 10 | < 1 |  | CC(C)(O)Cn1cc(Nc2ncnc(N3CCN(c4ncc(Sc5ccc(F)cc5)cn4)CC3)n2)cn1 [Compound 149]
12 | 100 to 1000 | 1.01 to 10 | < 1 | < 10 | CN1CCN(c2cccc(Nc3ncnc(N4CCN(c5ncc(Cc6ccccc6)cn5)CC4)n3)c2)CC1 [Compound 157]
13 | < 10 | 1.01 to 10 | < 1 | < 10 | c1ccc(Cc2cnc(N3CCN(c4ncnc(Nc5ccc(O[C@@H]6CCCNC6)cc5)n4)CC3)nc2)cc1 [Compound 161]
14 | < 10 | 1.01 to 10 | < 1 | 11 to 100 | O[C@H]1CCCN(c2ccc(Nc3ncnc(N4CCN(c5ncc(Cc6ccccc6)cn5)CC4)n3)cc2)C1 [Compound 166]
15 | < 10 | < 1 | < 1 | < 10 | CN1CCC(Cn2cc(Nc3ncnc(N4CCN(c5ncc(Cc6ccccc6)cn5)CC4)n3)cn2)CC1 [Compound 174]
16 | 10 to 100 | 1.01 to 10 | < 1 |  | CN1CCN(Cc2cccc(Nc3ncnc(N4CCN(c5ncc(Cc6ccccc6)cn5)CC4)n3)c2)CC1 [Compound 211]
17 | 10 to 100 | 1.01 to 10 | 1.01 to 10 |  | O[C@@H]1CCCN(c2ccc(Nc3ncnc(N4CCN(c5ncc(Cc6ccc(F)cc6)cn5)CC4)n3)cc2)C1 [Compound 239]
18 | 10 to 100 | 1.01 to 10 | < 1 |  | Fc1ccc(Sc2cnc(N3CCN(c4ncnc(Nc5cnn(C[C@@H]6CNCCO6)c5)n4)CC3)nc2)cc1 [Compound 256]
19 | 10 to 100 | 1.01 to 10 | 1.01 to 10 |  | CC(C)(c1ccccc1)c1cnc(N2CCN(c3ncnc(Nc4ccc(N5CCC[C@@H](O)C5)cc4)n3)CC2)nc1 [Compound 263]
20 | < 10 | 1.01 to 10 | 1.01 to 10 |  | Cc1c(Nc2ncnc(N3CCN(c4ncc(Cc5ccc(F)cc5)cn4)CC3)n2)cnn1C[C@@H]1CNCCO1 [Compound 271]
